# Biological target: T1, human renal renin (Homo sapiens, UniProt P00797)
# T1 construct: human renal renin, free from acid proteolytic activity; from tissue
# T1 sequence (P00797 67-406): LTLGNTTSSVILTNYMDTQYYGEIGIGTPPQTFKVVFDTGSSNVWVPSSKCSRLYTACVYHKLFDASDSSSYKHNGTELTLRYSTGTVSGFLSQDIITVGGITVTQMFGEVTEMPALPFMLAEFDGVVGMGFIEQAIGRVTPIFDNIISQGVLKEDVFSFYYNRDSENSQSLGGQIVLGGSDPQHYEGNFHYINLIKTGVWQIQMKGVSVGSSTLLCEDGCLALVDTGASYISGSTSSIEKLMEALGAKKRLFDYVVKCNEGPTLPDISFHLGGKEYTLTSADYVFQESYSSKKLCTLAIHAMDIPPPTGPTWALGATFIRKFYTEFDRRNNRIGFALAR
# Experiment: Inhibition of human renal renin in vitro (angiotensin I formed, radioimmunoassay)
# Format: biochemical
# Settings: human angiotensinogen substrate, 37 degrees C., pH 6.0
# Description: The novel compounds of the present invention are also useful for treating congestive heart failure. […] At the end of the incubation, the amount of angiotensin I formed is measured by radioimmunoassay and the molar concentration required to cause 50% inhibition, expressed as the IC50, is calculated.
row,SMILES,IC50 [nM]
1,"CCN1C[C@@H]([C@H](O)[C@H](CC2CCCCC2)NC(=O)[C@H](Cc2cnc[nH]2)N2C[C@H](Cc3ccccc3)N(CC(C)C)C2=O)OC1=O [Example 119, (2S)-2-(Imidazol-4-ylmethyl)-2-(3-isobutyl-(4S)-phenylmethylimidazolidin-2-one-1-yl)acetic Acid Amide of (2'S,1'R,5S)-3-Ethyl-5-(1'-hydroxy-2'-amino-3'-cyclohexylpropyl)oxazolidin-2-one]",150
2,"CCCCNC(=O)[C@H](C[C@H](O)[C@H](CC1CCCCC1)NC(=O)C(Cc1cscn1)N1CCN(C(=O)N2CCOCC2)[C@H](Cc2ccccc2)C1=O)C(C)C (stereo partly drawn) [Example 129, 3-(3-Thiazolyl)-2-(3R-benzyl-4-N-morpholin-1-yl-carbonyl-2-keto-piperazin-1-yl)-propionic acid Amide of Butyl 5(S)-amino-6-cyclohexyl-4(S)-hydroxy-2(R)-isopropylhexan-amide]",1.3
3,"CCCCNC(=O)[C@H](C[C@H](O)[C@H](CC1CCCCC1)NC(=O)C(Cc1cscn1)N1CCN(S(=O)(=O)c2ccc(C)cc2)[C@H](Cc2ccccc2)C1=O)C(C)C (stereo partly drawn) [Example 130, 3-(4-Thiazolyl)-2-(3R-benzyl-4-N-p-toluene-sulfonyl-2-keto-piperazin-1-yl)-propionic acid Amide of Butyl 5(S)-amino-6-cyclohexyl-4(S)-hydroxy-2(R)-isopropylhexan-amide]",0.73
4,"Cc1ccc(S(=O)(=O)N2CCN(C(Cc3cscn3)C(=O)N[C@@H](CC3CCCCC3)[C@@H](O)[C@@H](O)CC(C)C)C(=O)[C@H]2Cc2ccccc2)cc1 (stereo partly drawn) [Example 131, 3-(3-Thiazolyl)-2-(3R-benzyl-4-N-p-toluene-sulfonyl-2-keto-piperazin-1-yl)-propionic acid Amide of 2(S)-amino-1-cyclohexyl-3(R),4(S)-dihydroxyl-6-methylheptane]",3
5,"CCCC[C@@H](C(=O)N[C@@H](CC1CCCCC1)[C@@H](O)[C@@H](O)CC(C)C)N1CCCN(C(=O)OC(C)(C)C)[C@H](Cc2ccccc2)C1=O [Example 132, 2(S)-(3R-Benzyl-4N-tert-butyloxycarbonyl-2-keto-homopiperazin-1-yl)-hexanoic acid Amide of 2(S)-Amino-1-cyclohexyl-3(R),4(S)-dihydroxy-6-methylheptane]",340
6,"Cc1ccc(S(=O)(=O)N2CCN(C(Cc3cscn3)C(=O)N[C@@H](CC3CCCCC3)[C@@H](O)[C@@H]3C[C@H](C)CO3)C(=O)[C@H]2Cc2ccccc2)cc1 (stereo partly drawn) [Example 140, 3-(S-Thiazolyl)-2-(3R-benzyl-4-N-p-toluene-sulfonyl-2-keto-piperazin-1-yl)-propionic acid Amide of 2(S)-(2(S)-Amino-3-cyclohexyl-1(R)-hydroxy)propyl-4(S)-methyltetrahydrofuran]",3.4
7,CCCCNC(=O)[C@H](C[C@H](O)[C@H](CC1CCCCC1)NC(=O)C(Cc1cscn1)N1CCN(S(=O)(=O)N2CCN(C)CC2)[C@H](Cc2ccccc2)C1=O)C(C)C (some centres unmarked) [Example 141],1.5
8,"CCN1CC(C(O)C(CC2CCCCC2)NC(=O)C(Cc2nccn2C(=O)OC(C)(C)C)N2CCN(S(=O)(=O)N3CCN(C)CC3)C(Cc3ccccc3)C2=O)OC1=O [Example 142, 3-(3N-tert-butyloxycarbonyl-2-imidazolyl)-2-(3R-benzyl-4-N-(N-methylpiperazyl)-sulfonyl-2-keto-piperazin-1-yl)-propoionic acid Amide of (2'S,1'R,5S)-3-Ethyl-5-(1'-hydroxy-2'-amino-3'-cyclohexylpropyl)oxazolidin-2-one]",5
9,"CCN1C[C@@H]([C@H](O)[C@H](CC2CCCCC2)NC(=O)C(Cc2ncc[nH]2)N2CCN(S(=O)(=O)N3CCN(C)CC3)[C@H](Cc3ccccc3)C2=O)OC1=O (stereo partly drawn) [Example 143, 3-(2-imidazolyl)-2-(3R-benzyl-4-N-(N-methylpiperazyl)-sulfonyl-2-keto-piperazin-1-yl)-propionic acid Amide of (2'S,1'R,5S)-3-Ethyl-5-(1'-hydroxy-2'-amino-3'-cyclohexylpropyl)oxazolidin-2-one]",1.7
10,"C[C@@H]1CO[C@H]([C@H](O)[C@H](CC2CCCCC2)NC(=O)C(Cc2nccn2C(=O)OC(C)(C)C)N2CCN(S(=O)(=O)N3CCN(C)CC3)[C@H](Cc3ccccc3)C2=O)C1 (stereo partly drawn) [Example 146, 3-(3N-tert-butyloxycarbonyl-2-imidazolyl)-2-(3R-benzyl-4N-(N-methylpiperazyl)-sulfonyl-2-keto-piperazin-1-yl)-propionic acid Amide of 2(s)-(2(s)-Amino-3-cyclohexyl-1(R) hydroxy)propyl-4(S)-methyltetrahydrofuran]",1.6

# The next lines start with the values.
row,IC50 [nM],SMILES
1,650,"CC(C)C[C@H](O)[C@H](O)[C@H](CC1CCCCC1)NC(=O)[C@H](Cc1c[nH]cn1)N1C[C@H](Cc2ccccc2)NC1=O [Example 120, (2S)-2-(Imidazol-4-ylmethyl)-2-((4S)-phenylmethylimidazolidin-2-one-1-yl)acetic Acid Amide of (2S)-Amino-1-cyclohexyl-3(R),4(S)-dihydroxy-6-methylheptane]"
2,430,"CC(C)C[C@H](O)[C@H](O)[C@H](CC1CCCCC1)NC(=O)[C@H](Cc1c[nH]cn1)N1CC[C@@H](Cc2ccccc2)C1=O [Example 121, (2S)-2-(Imidazol-4-ylmethyl)-2-((3R)-phenylmethyl-2-oxopyrrolidin-1-yl)acetic Acid Amide of (2S)-Amino-1-cyclohexyl-3(R),4(S)-dihydroxy-6-methylheptane]"
3,580,"CC(C)C[C@H](O)[C@H](O)[C@H](CC1CCCCC1)NC(=O)[C@H](Cc1c[nH]cn1)N1C[C@H](Cc2ccccc2)CC1=O [Example 122, (2S)-2-(Imidazol-4-ylmethyl)-2-((4R)-phenylmethyl-2-oxopyrrolidin-1-yl)acetic Acid Amide of (2S)-Amino-1-cyclohexyl-3(R),4(S)-dihydroxy-6-methylheptane]"
4,6.6,"CC(C)C[C@H](O)[C@H](O)[C@H](CC1CCCCC1)NC(=O)C(Cc1nccn1C(=O)OC(C)(C)C)N1CCN(S(=O)(=O)N2CCN(C)CC2)[C@H](Cc2ccccc2)C1=O (stereo partly drawn) [Example 144, 3-(3N-tert-butyloxycarbonyl-2-imidazolyl)-2-(3R-benzyl-4N-(N-methylpiperazyl)-sulfonyl-2-keto-piperazin-1-yl)-propionic acid Amide of 2(S)-Amino-1-cyclohexyl-3(R),4(S)-dihydroxy-6-methylheptane]"
5,1.7,CC(C)C[C@H](O)[C@H](O)[C@H](CC1CCCCC1)NC(=O)C(Cc1ncc[nH]1)N1CCN(S(=O)(=O)N2CCN(C)CC2)[C@H](Cc2ccccc2)C1=O (some centres unmarked) [Example 145]
6,0.32,"CC(C)C[C@H](O)[C@H](O)[C@H](CC1CCCCC1)NC(=O)[C@H](Cc1cscn1)N1CCC[C@@](Cc2ccccc2)(NS(=O)(=O)N2CCN(C)CC2)C1=O [Example 151, (2S)-(3S)-((N-methylpiperazinsulfonyl)-amino-3-phenylmethyl-2-oxo-1-piperidinyl)-3-(4-thiazolyl) propionic acid amide of (2S.3R,4S)-2-amino-1-cyclohexyl-3,4-dihydroxy-6-methylheptane]"
7,1.4,Cc1ccc(S(=O)(=O)N[C@]2(Cc3ccccc3)CCCN([C@@H](Cc3c[nH]cn3)C(=O)N[C@@H](CC3CCCCC3)[C@@H](O)[C@@H](O)CC(C)C)C2=O)cc1 [Example 156]

# Source: US5164388A, “Heterocyclic peptide renin inhibitors” (Abbott Laboratories, priority 1991, dated 1992)
